The values below come from ChEMBL document CHEMBL1909046, “DrugMatrix in vitro pharmacology data”.

A short description of test [1]: DRUGMATRIX: Calcium Channel Type L, Benzothiazepine radioligand binding (ligand: [3H] Diltiazem). In kind it is cell membranes, Rattus norvegicus, Wistar, Brain, Membrane. The conditions noted are these: Not Active = under 50% inhibition at 10 µM.
Test [2] concerns the target 5-hydroxytryptamine receptor 4 (Cavia porcellus, UniProt O70528). In kind it is cell membranes, Dunkin-Hartley, Striatum, Membrane. Further: in other assays of this panel Not Active means under 50% inhibition at 10 µM.
Test [3] has as its target Prostaglandin G/H synthase 1 (Homo sapiens, UniProt P23219). Briefly: biochemical. The test is classed as tissue-based, Platelet. The following applies: platelet.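 Further: inhibition of COX-1 enzyme activity, with arachidonic acid supplied as substrate; in other assays of this panel Not Active means under 50% inhibition at 10 µM.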
Test [4] in a line: DRUGMATRIX: GABAA, Chloride Channel, TBOB radioligand binding (ligand: [3H] TBOB). The test is classed as cell membranes, Rattus norvegicus, Wistar, Cerebral cortex, Membrane. The following applies: Not Active = under 50% inhibition at 10 µM.
For another test, the target named is Adenosine receptor A2a (Homo sapiens, UniProt P29274). Briefly: DRUGMATRIX: Adenosine A2A radioligand binding (ligand: […]). In kind it is cell membranes, HEK293, Membrane. The following applies: hek293; Not Active = under 50% inhibition at 10 µM.
Sequence of Adenosine receptor A2a (P29274 whole entry): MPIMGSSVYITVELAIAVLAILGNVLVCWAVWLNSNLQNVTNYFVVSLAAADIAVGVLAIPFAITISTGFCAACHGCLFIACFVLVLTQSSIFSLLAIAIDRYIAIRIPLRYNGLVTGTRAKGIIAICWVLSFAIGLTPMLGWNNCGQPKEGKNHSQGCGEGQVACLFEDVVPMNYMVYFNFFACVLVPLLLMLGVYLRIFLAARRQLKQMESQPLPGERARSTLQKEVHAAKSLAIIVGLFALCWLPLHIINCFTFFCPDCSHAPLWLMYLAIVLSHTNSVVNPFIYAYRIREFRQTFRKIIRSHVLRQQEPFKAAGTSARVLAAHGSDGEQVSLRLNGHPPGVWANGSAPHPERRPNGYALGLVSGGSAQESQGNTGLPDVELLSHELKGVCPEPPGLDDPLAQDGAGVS

Sequence of 5-hydroxytryptamine receptor 4 (O70528 whole entry): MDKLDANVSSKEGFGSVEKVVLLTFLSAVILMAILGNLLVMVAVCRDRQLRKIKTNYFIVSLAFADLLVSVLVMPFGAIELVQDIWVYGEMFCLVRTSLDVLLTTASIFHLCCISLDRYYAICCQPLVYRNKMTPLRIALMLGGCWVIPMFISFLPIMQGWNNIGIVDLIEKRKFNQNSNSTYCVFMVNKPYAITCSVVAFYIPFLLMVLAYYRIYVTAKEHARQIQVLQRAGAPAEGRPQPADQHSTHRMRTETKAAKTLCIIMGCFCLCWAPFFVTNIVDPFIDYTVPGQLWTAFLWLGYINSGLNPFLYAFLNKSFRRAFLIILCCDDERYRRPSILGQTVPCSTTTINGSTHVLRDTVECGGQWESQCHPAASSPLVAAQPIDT
Sequence of Prostaglandin G/H synthase 1 (P23219 whole entry): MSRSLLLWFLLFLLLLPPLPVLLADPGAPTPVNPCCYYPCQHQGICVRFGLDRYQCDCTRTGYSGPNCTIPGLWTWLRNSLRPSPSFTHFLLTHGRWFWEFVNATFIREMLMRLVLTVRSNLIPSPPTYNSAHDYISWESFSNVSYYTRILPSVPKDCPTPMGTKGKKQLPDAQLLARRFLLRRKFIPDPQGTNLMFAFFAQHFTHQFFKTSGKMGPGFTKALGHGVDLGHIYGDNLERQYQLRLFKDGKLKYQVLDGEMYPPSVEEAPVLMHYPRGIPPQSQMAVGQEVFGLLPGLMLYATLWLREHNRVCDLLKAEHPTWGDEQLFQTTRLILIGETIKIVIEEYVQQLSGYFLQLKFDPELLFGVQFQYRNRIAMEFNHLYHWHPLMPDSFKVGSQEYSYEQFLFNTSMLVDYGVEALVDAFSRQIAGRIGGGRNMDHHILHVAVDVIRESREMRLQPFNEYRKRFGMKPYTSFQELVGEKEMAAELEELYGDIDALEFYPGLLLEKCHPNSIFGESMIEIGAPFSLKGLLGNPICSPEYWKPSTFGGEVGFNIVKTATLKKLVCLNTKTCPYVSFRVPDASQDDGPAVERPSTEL

By IC50 is commonly meant the concentration that gives 50% inhibition. What is called Ki is a measure of affinity in units of concentration, obtained from inhibition or displacement. As for `CNC[C@H](O)c1ccc(O)c(O)c1` [EPINEPHRINE], the IC50 result (in test [1]; in test [2]; in test [3]; in test [4]; at Adenosine receptor A2a) was “Not Active” in each case. Also, the Ki result in test [1] and in test [4] was “Not Active” in each case.

For the compound `C=CCO` [ALLYL ALCOHOL], the half-inhibitory concentration (IC50) entry (in test [1]; in test [2]; in test [3]; in test [4]; at Adenosine receptor A2a) was “Not Active” throughout. Besides, the inhibitory constant (Ki) entry in test [1] and in test [4] was “Not Active” throughout.

On to CARBOXYMETHYLCELLULOSE, for which the 50% inhibitory concentration (IC50) result (in test [1]; in test [2]; in test [3]; in test [4]; on Adenosine receptor A2a) was “Not Active” throughout. Besides, the Ki result (in test [1]; in test [2]; in test [3]; in test [4]; on Adenosine receptor A2a) was “Not Active” each time.

`C=CCN1CC[C@]23c4c5ccc(O)c4O[C@H]2/C(=N/N=C2\CC[C@@]4(O)[C@H]6Cc7ccc(O)c8c7[C@@]4(CCN6CC=C)[C@H]2O8)CC[C@@]3(O)[C@H]1C5` [NALOXONAZINE]: the IC50 result (in test [1]; in test [2]; in test [3]; in test [4]; at Adenosine receptor A2a) was “Not Active” in each case. Moreover, the inhibitory constant (Ki) entry in test [1] and in test [4] was “Not Active” each time.

Take `Cc1ccnc2c1NC(=O)c1cccnc1N2C1CC1` [NEVIRAPINE]: the IC50 entry (in test [1]; in test [2]; in test [3]; in test [4]; at Adenosine receptor A2a) was “Not Active” each time. Also, the inhibition constant (Ki) result in test [1] and in test [4] was “Not Active” throughout.

For the compound `NCC(CC(=O)O)c1ccc(Cl)cc1` (stereo unspecified) [BACLOFEN], the IC50 result (in test [1]; in test [2]; in test [3]; in test [4]; at Adenosine receptor A2a) was “Not Active” throughout. The Ki entry in test [1] and in test [4] was “Not Active” in each case.

Take `CO[C@H]1O[C@@H]2O[C@@]3(C)CC[C@H]4[C@H](C)CC[C@@H]([C@H]1C)[C@@]24OO3`: the IC50 result (in test [1]; in test [2]; in test [3]; in test [4]; on Adenosine receptor A2a) was “Not Active” in each case. The Ki entry in test [1] and in test [4] was “Not Active” throughout.

As to `CC(CN1c2ccccc2Sc2ccccc21)N(C)C` (stereo unspecified) [PROMETHAZINE], the IC50 was 2780 nM in test [1] (read-out: IC50); “Not Active” in test [2]; “Not Active” in test [3]; “Not Active” in test [4]; “Not Active” at Adenosine receptor A2a. Also, the inhibitory constant (Ki) is 2470 nM in test [1] (read-out: Ki) and “Not Active” in test [4].

In the case of `O=C(O)CNCP(=O)(O)O` [GLYPHOSATE], the 50% inhibitory concentration (IC50) entry (in test [1]; in test [2]; in test [3]; in test [4]; on Adenosine receptor A2a) was “Not Active” each time. Also, the Ki result in test [1] and in test [4] was “Not Active” throughout.
